These results are taken from patent US6537965B1, “Amino-terminal modified parathyroid hormone (PTH) analogs” (The General Hospital Corporation, priority 1998, dated 2003).

Broadly, the EC50 is the concentration at which the effect is half-maximal.

Common to all, as to format: cell-based
Assay [1] addresses T1, hPTH-1 receptors (Homo sapiens, UniProt Q03431).
T1 sequence (Q03431 27-593): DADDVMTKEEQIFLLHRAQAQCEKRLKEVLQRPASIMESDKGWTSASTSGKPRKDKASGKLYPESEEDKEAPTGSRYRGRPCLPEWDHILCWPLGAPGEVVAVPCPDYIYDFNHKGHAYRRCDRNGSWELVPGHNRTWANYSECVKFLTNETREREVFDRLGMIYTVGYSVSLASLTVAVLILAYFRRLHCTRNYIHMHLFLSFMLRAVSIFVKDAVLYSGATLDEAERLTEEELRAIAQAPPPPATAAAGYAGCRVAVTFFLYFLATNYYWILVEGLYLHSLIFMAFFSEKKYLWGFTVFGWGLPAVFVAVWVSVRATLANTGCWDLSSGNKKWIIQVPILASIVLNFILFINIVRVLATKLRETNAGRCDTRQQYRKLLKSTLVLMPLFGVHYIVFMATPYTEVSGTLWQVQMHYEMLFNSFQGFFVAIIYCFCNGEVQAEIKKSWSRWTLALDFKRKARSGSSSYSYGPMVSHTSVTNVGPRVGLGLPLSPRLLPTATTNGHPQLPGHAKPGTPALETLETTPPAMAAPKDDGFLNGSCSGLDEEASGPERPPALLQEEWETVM
Kind of assay: phospholipase C (PLC) activity in HKRK-B7 cells. Set-up: expressed in transfected cells. The note with it: for activation of PLC: about 1 million hPTH-1 receptors per cell, 1000 nM (FIG. 4). The source says: (§1) The following cell lines were used in these studies. HKRK C53 subclones of LLC-PKI porcine renal epithelial cells which stably express human PTH-1 receptors (150,000 receptors/cell). SaOS-2 cells are transformed human osteosarcoma cells which express relatively few (10,000-20,000 per cell) human PTH-1 receptors. HPR2-7 cells are subclones of LLC-PK1 which express approximately 250,000 recombinant human PTH-2 receptors per cell. HKRK-B7 cells are subclones of LLC-PK which stably express approximately 1 million hPTH-1 receptors per cell. HPR2-22 cells are subclones of LLC-PK1 which express 1.5 million recombinant hPTH-2 receptors per cell. The HPR2-27 and HPR2-22 cell lines were created in the same fashion as the HKRK cells but employing instead type 2 PTH receptor cDNA using the transfection technique of (Bringhurst, F. R., et al., Endocrinology 132(5):2090-2098 (1993); Guo, J., et al., Endocrinology 136(9):3884-3891 (1995)).
(§2) PLC was activated by PTH agonists in the presence of 30 mM LiCl at 37° C. for 30 min after 16 hr of labeling with [^3H]myo-inositol (3uCi/ml) in serum-free medium containing 0.1% bovine serum albumin. The reactions were stopped by rapid aspiration and addition of cold 5% TCA. Water-soluble radiolabeled inositol trisphosphate (IP3) was isolated after ether extraction by ion-exchange chromatography (Guo, J., et al., Endocrinology 136(9):3884-3891 (1995)). In experiments involving HEK 293 cells, cells previously transfected with human PTHR cDNA (in the pcDNA1 expression vector HKRK) using Lipofectamine (Gibco BRL) were labeled with [^3H]myo-inositol and assayed as described above, except that total water-soluble [^3H]inositol polyphosphates were collected as a single fraction from the ion-exchange columns.

Assay [2] addresses T2, hPTH-2 receptors (Homo sapiens, UniProt P49190).
T2 construct: expressed in transfected cells
As to the kind of experiment: cAMP measurements in clonal LLC-PK1 cells (HPR2-7). The note with it: for cAMP responsiveness, efficacy compared with hPTH(1-34)NH2 / maximal cyclase activation (maximal response) compared with hPTH(1-34): HPR2-7 cells; for cAMP responsiveness, efficacy compared with hPTH(1-34)NH2: about 250,000 human PTH-2 receptors per cell (FIG. 3); for maximal cyclase activation (maximal response) compared with hPTH(1-34) / EC50 lower than that of hPTH(1-34): human PTH-2 receptor; for maximal cyclase activation (maximal response) compared with hPTH(1-34): very high concentrations (1 micromolar); for EC50: clonal LLC-PK1 cells stably expressing human PTH-2 receptors, read-out: EC50 for activation of AC.
From the text: as §1, with “HKRK-B7 cells are subclones of LLC-PK which stably express approximately 1 million hPTH-1 receptors per cell. HPR2-22 cells are subclones of LLC-PK1 which express 1.5 million recombinant hPTH-2 receptors per cell.” left out
(§3) Intracellular cAMP accumulation, PLC activation and PTHR binding affinity were measured as previously reported (Bringhurst, F. R., et al., Endocrinology 132(5):2090-2098 (1993); Guo, J., et al., Endocrinology 136(9):3884-3891 (1995)). Intracellular cAMP accumulation was measured in extracts of cells that were exposed to human PTH peptides in the presence of isobutylmethyxanthine (IBMX, 1 mM) at 37° C. for 15 min. After terminating the reactions by aspiration and freezing in liquid nitrogen, cell monolayers were extracted with 50 mM HCl and cAMP was measured using a radioimmunoassay kit (Dupont-New England Nuclear, Boston, Mass.).

Assay [3] concerns the target T1, hPTH-1 receptors. As to the kind of experiment: cAMP accumulation (adenylyl cyclase activation) in HKRK C53 cells. Particulars: for reduction of AC activity relative to hPTH(1-34): via the human PTH-1 receptor, clonal LLC-PK1 cells; for cyclic AMP accumulation, efficacy compared with native hPTH(1-34)NH2: HKRK C53 cells, about 150,000 hPTH-1 receptors per cell, 10^-9M and 10^-7M peptide (FIG. 1). Set-up: expressed in transfected cells.
From the text: as §1, with “HKRK-B7 cells are subclones of LLC-PK which stably express approximately 1 million hPTH-1 receptors per cell. HPR2-22 cells are subclones of LLC-PK1 which express 1.5 million recombinant hPTH-2 receptors per cell.” left out
as §3
For orientation: Cyclic AMP is a second messenger, typically raised through Gs and lowered through Gi signalling.

Assay [4] has as its target T1, hPTH-1 receptors. As to the kind of experiment: AC activation in HKRK B7 cells. Set-up: expressed in transfected cells. The note with it: HKRK B7 cells (large number of human PTH-1 receptors).
From the text: as §1, §3

Assay [5] deals with T1, hPTH-1 receptors. Kind of assay: cAMP measurements in SaOS-2 cells. Set-up: expressed in transfected cells. Particulars: SaOS-2 cells, 10,000-20,000 human PTH-1 receptors per cell; up to 1 uM (FIG. 2).
From the text: as §1, §3

The target of assay [6] is T2, hPTH-2 receptors. As to the kind of experiment: phospholipase C activation in HPR2-22 cells. The note with it: 1.5 million hPTH-2 receptors per cell, 1,000 nM (FIG. 5).
From the text: as §1, §2

Ends that are not written are not given here. Peptide text beside a SMILES is read from it. * marks the point of attachment. Propionyl = CCC(=O)*

T2 sequence (P49190 25-550): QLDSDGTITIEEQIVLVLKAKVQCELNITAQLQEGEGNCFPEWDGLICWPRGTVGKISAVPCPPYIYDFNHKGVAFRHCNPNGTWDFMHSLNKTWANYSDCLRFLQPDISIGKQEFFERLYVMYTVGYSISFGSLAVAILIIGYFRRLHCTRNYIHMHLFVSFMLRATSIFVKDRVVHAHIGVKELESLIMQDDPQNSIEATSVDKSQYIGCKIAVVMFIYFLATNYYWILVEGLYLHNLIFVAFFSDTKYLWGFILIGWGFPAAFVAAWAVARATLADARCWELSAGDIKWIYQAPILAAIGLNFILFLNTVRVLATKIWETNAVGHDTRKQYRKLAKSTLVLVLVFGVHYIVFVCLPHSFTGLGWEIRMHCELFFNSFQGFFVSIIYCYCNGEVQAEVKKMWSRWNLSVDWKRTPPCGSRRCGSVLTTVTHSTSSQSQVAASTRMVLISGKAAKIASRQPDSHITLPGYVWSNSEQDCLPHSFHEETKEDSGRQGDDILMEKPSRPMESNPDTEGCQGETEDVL

With `CCC(=O)N[C@H](C(=O)N[C@@H](CO)C(=O)N[C@@H](CCC(=O)O)C(=O)N[C@H](C(=O)N[C@@H](CCC(N)=O)C(=O)N[C@@H](CC(C)C)C(=O)N[C@@H](CCSC)C(=O)N[C@@H](Cc1c[nH]cn1)C(=O)N[C@@H](CC(N)=O)C(=O)N[C@@H](CC(C)C)C(=O)NCC(=O)N[C@@H](CCCCN)C(=O)N[C@@H](Cc1c[nH]cn1)C(=O)N[C@@H](CC(C)C)C(=O)N[C@@H](CC(N)=O)C(=O)N[C@@H](CO)C(=O)N[C@@H](CCSC)C(=O)N[C@@H](CCC(=O)O)C(=O)N[C@@H](CCCNC(=N)N)C(=O)N[C@H](C(=O)N[C@@H](CCC(=O)O)C(=O)N[C@@H](Cc1c[nH]c2ccccc12)C(=O)N[C@@H](CC(C)C)C(=O)N[C@@H](CCCNC(=N)N)C(=O)N[C@@H](CCCCN)C(=O)N[C@@H](CCCCN)C(=O)N[C@@H](CC(C)C)C(=O)N[C@@H](CCC(N)=O)C(=O)N[C@@H](CC(=O)O)C(=O)N[C@H](C(=O)N[C@@H](Cc1c[nH]cn1)C(=O)N[C@@H](CC(N)=O)C(=O)N[C@@H](Cc1ccccc1)C(N)=O)C(C)C)C(C)C)[C@@H](C)CC)C(C)C` [desamino-[Ala^1]hPTH(1-34)NH2] (Propionyl-VSEIQLMHNLGKHLNSMERVEWLRKKLQDVHNF-NH2), the “activation of PLC” value on hPTH-1 receptors [1] was “no activation of PLC”. Also, at hPTH-2 receptors [2], the “cAMP responsiveness, efficacy compared with hPTH(1-34)NH2” value was “enhanced efficacy”; the EC50 came out at 10 nM; the “EC50 lower than that of hPTH(1-34)” value stood at 3 fold. Further, the “maximal cyclase activation (maximal response) compared with hPTH(1-34)” value at hPTH-2 receptors [2] (listed as desamino-[Ala^1]) was “substantially greater”. Further, the “maximal cyclase activation (maximal response) compared with hPTH(1-34)” value on hPTH-2 receptors [2] (listed as desamino-[Ala^1]hPTH(1-34)) was “twice”. Also, on hPTH-1 receptors [3], the “reduction of AC activity relative to hPTH(1-34)” value worked out at 10 fold. Besides, the “activation of AC compared with hPTH-(1-34)” value on hPTH-1 receptors [4] was “approximately equipotent”. On hPTH-1 receptors [5], the “cyclase (cAMP) activity compared with control hPTH(1-34)” value is on record as “minimal activity”. Moreover, the “activation of phospholipase C” value on hPTH-2 receptors [6] is on record as “greater maximal activation”.

Turning to “Ac-VSEIQLMHNLGKHLNSMERVEWLRKKLQDVHNF-NH2 [desamino-[Gly^1]hPTH(1-34)NH2]”, the “activation of PLC” value on hPTH-1 receptors [1] is “no activation of PLC”. At hPTH-2 receptors [2], the “cAMP responsiveness, efficacy compared with hPTH(1-34)NH2” value is “enhanced efficacy”; the EC50 turned out to be 10 nM; the “EC50 lower than that of hPTH(1-34)” value came to 3 fold. Besides, the “maximal cyclase activation (maximal response) compared with hPTH(1-34)” value at hPTH-2 receptors [2] (listed as desamino-[Gly^1]) is “substantially greater”. The “maximal cyclase activation (maximal response) compared with hPTH(1-34)” value on hPTH-2 receptors [2] (listed as desamino-[Gly^1]hPTH(1-34)) is “twice”. The “reduction of AC activity relative to hPTH(1-34)” value on hPTH-1 receptors [3] is 10 fold. Besides, the “activation of AC compared with hPTH-(1-34)” value at hPTH-1 receptors [4] is “approximately equipotent”. For the same molecule, the “cyclase (cAMP) activity compared with control hPTH(1-34)” value on hPTH-1 receptors [5] is reported as “minimal activity”. In addition, the “activation of phospholipase C” value on hPTH-2 receptors [6] is “greater maximal activation”.

For the molecule “[Ala^1]hPTH(1-34)NH2: hPTH-(1-34) with substitution of Ala^1 for Ser^1 (AVSEIQLMHNLGKHLNSMERVEWLRKKLQDVHNF-NH2; not fully specified (residue 1); UniProt P01270 32-65, looked up, variant S1A)”, in the assay with hPTH-1 receptors [1], the “activation of PLC” value is on record as “fill agonists”. Also, the “cyclic AMP accumulation, efficacy compared with native hPTH(1-34)NH2” value in the assay with hPTH-1 receptors [3] is recorded as “nearly the same efficacy”. Besides, in the assay with hPTH-1 receptors [5], the “cyclase (cAMP) activity compared with control hPTH(1-34)” value is “comparable to that of the control peptide”.

As to “[Gly^1]hPTH(1-34)NH2: hPTH-(1-34) with substitution of Gly^1 for Ser^1 (GVSEIQLMHNLGKHLNSMERVEWLRKKLQDVHNF-NH2; not fully specified (residue 1); UniProt P01270 32-65, looked up, variant S1G)”, in the assay with hPTH-1 receptors [1] (1000 nM), the “PLC activity as % of the hPTH(1-34) maximum” value was “approximately 50%”. Further, the “activation of PLC” value in the assay with hPTH-1 receptors [1] is reported as “only a partial agonist”. Moreover, the “cyclic AMP accumulation, efficacy compared with native hPTH(1-34)NH2” value in the assay with hPTH-1 receptors [3] was “nearly the same efficacy”. Moreover, the “cyclase (cAMP) activity compared with control hPTH(1-34)” value with hPTH-1 receptors [5] was “comparable to that of the control peptide”.
